The target in data set [1] is T1, TSPO (Mus musculus, UniProt P50637). Particulars: Sandhoff mice at 4 months of age; cited from earlier work.
Data set [2] relates to TSPO. Particulars: cited from earlier work.
Data set [3] deals with T2, TSPO (Rattus norvegicus, UniProt P16257).
T2 construct: Fresh-frozen brains were sectioned (20 μm) on a freezing cryostat in the horizontal plane; from tissue; host or cells: rat brain sections (control and neurotoxicant-treated)
As to the kind of experiment: In vitro autoradiography with [125I]1 on rat brain sections (neurotoxicant model of brain inflammation). Type of data set: binding. Here is the method:
Fresh-frozen brains were sectioned (20 μm) on a freezing cryostat in the horizontal plane. Brain sections were thaw-mounted onto poly-L-lysine-coated slides (Sigma) and stored at −20° C. until used. Autoradiography using [^125I]IodoDPA-713 ([^125I]1) was performed on adjacent brain sections using the following procedures. Slides were thawed and dried at 37° C. for 30 min and prewashed in 50 mM Tris-HCl buffer (pH 7.4) for 5 min at room temperature. Sections were then incubated in 1.4 nM [^125I]1 in 50 mM Tris-HCl buffer for 30 min at room temperature. For non-specific binding, adjacent sections were incubated in the presence of 10 μM racemic PK11195. The reaction was terminated by two 3 min washes in cold buffer (4° C.) and two dips in cold deionized water (4° C.). Sections were air-dried and apposed to Kodak Bio-Max MR film for 1 h. Images were acquired using the MCID image analysis software (InterFocus Imaging Ltd., Cambridge, England).
The first study involved a model of brain inflammation in which rats were exposed to a seizure-inducing neurotoxicant (FIG. 2). Note that higher levels of [^125I]1 were present in the neurotoxicant-treated rat brain (FIG. 2B) than in control brain (FIG. 2A). Exposure of the tissue specimens to [^125I]1 to generate these images required only 60 min, as opposed to 4-5 weeks often needed for tritium-labeled compounds when exposing the samples to film.

For data set [4], the target named is T1, TSPO. Nature of the data set: SPECT-CT imaging of LPS-induced lung inflammation in mice. Format: in vivo. Particulars: for lung signal to background ratio: 1 h postinjection, lungs vs muscle. As for the experimental part: Eight- to 10-week-old female CD-1 mice (Charles River Labs) were imaged. Mice were anesthetized by brief isoflurane sedation. While anesthetized, intranasal instillation was conducted by placing 10 μg/60 μL (167 μg/mL) of lipopolysaccharide (LPS) onto the nares (Szarka et al., “A murine model of pulmonary damage induced by lipopolysaccharide via intranasal instillation,” J. Immunol. Methods, vol. 202, pp. 49-57, 1997). The 60 μL sample was applied onto the nares as three 20 μL drops. Phosphate-buffered saline (PBS) was administered in a similar fashion and used as the control.
For single photon emission computed tomography-computed tomography (SPECT-CT) imaging 18.5 MBq (500 μCi) of [^125I]1 was injected via the tail vein into the LPS and PBS treated mice and imaged 1 h later, which corresponded to 24 h after the administration of LPS or PBS. That time point was chosen since it represents the time at which there is maximum inflammation in the lungs, as determined by a time course study with histologic correlation (data not shown). Each mouse was anesthetized with isoflurane and maintained under 1-2% isoflurane in oxygen. The mouse was positioned on the X-SPECT (Gamma Medica, Northridge, Calif.) gantry and was scanned using two opposing low energy pinhole collimators (Gamma Medica) rotating through 360° in 3° increments for 20 s per increment. Images were reconstructed using LumaGem software that accompanies the X-SPECT. Immediately following SPECT acquisition, the mice were scanned by CT over a 3-cm field-of-view using a 600-μA, 50 kV beam. […] Data were reconstructed using the ordered subsets-expectation maximization (OS-EM) algorithm. The signal to background ratio was calculated from the images by drawing regions of interest over the lungs (signal) and muscle, (background).

Data set [5] concerns the target T1, TSPO. Nature of the data set: [125I]-IodoDPA713 microSPECT/CT dynamic in vivo imaging of TSPO in Sandhoff disease mice. Also on record: Fresh-frozen brains were sectioned (20 μm) on a freezing cryostat in the horizontal plane; from tissue; host or cells: mouse brain sections (fresh-frozen for A4, PLP-fixed for A5). As for the experimental part:
(§1) An X-SPECT small-animal SPECT/CT system (Gamma Medica-Ideas) was used for image acquisition. Each mouse was anesthetized with isofluorane prior to imaging. About 1-2 mCi of [^125I]-IodoDPA713 was injected into each mouse via intravenous injection, and images were acquired immediately after injection. The SPECT projection data were acquired using 2 low-energy, high-resolution parallel-hole collimators with a radius of rotation of 4.65 cm (spatial resolution, 1.6 mm). The tomographic data were acquired in 64 projections over 360° at 20 s per projection. After tomography, CT was acquired in 512 projections to allow anatomic coregistration. Data were reconstructed using the ordered subsets-expectation maximization algorithm and analyzed using AMIDE software (free software provided by SourceForge). Data was analyzed using Analysis software, and time activity curve of the [^125I]-IodoDPA713 uptake was generated for each mouse. Three mice per genotype were scanned for the study. For the blocking study, non-radioactive IodoDPA713 (20 μM) was intravenously co-injected with [^125I]-IodoDPA713, and images were acquired immediately after [^125I] injection.

Data set [6] concerns the target T1, TSPO. As to the kind of experiment: [125I]-IodoDPA713 microSPECT/CT imaging of heart in coxsackievirus-induced myocarditis mice. Format: in vivo. As for the experimental part:
as §1, with “treatment” for “genotype”, “study.” for “study. For the blocking study, non-radioactive IodoDPA713 (20 μM) was intravenously co-injected with [^125I]-IodoDPA713, and images were acquired immediately after [^125I] injection.”

The target of data set [7] is T1, TSPO. As to the kind of experiment: Quantitative receptor autoradiography with [125I]-IodoDPA713 on Sandhoff mouse brain sections. Type of data set: binding. Also on record: Fresh-frozen brains were sectioned (20 μm) on a freezing cryostat in the horizontal plane; from tissue; host or cells: mouse brain sections (fresh-frozen for A4, PLP-fixed for A5). Here is the method: Fresh-frozen brains were sectioned (20 μm) on a freezing cryostat in the horizontal plane. Brain sections were thaw-mounted onto poly-L-lysine-coated slides (Sigma-Aldrich, St. Louis, Mo.) and stored at −20° C. until used. [^125I]-IodoDPA713 autoradiography to measure TSPO levels were performed on adjacent brain sections using the same procedures. Slides were thawed and dried at 37° C. for 30 min and prewashed in 50 mM Tris-HCl buffer (pH 7.4) for 5 min at room temperature. Sections were then incubated in 0.5 nM [^125I]-IodoDPA713 in buffer for 30 min at room temperature. For non-specific binding, adjacent sections were incubated in the presence of […] racemic PK11195. The reaction was terminated by two 3-min washes in cold buffer (4° C.) and two dips in cold deionized water (4° C.). Sections incubated with [^125I]-IodoDPA713 were apposed to Kodak Bio-Max MR films with [^125I]-Microscales (GE Healthcare, Piscataway, N.J.) for 1 h. Images were acquired and quantified using the MCID software (InterFocus Imaging Ltd, Cambridge, England).

Data set [8] deals with T3, TSPO (Homo sapiens, UniProt P30536). The conditions noted are these: cited from earlier work.
T3 sequence (P30536 whole entry): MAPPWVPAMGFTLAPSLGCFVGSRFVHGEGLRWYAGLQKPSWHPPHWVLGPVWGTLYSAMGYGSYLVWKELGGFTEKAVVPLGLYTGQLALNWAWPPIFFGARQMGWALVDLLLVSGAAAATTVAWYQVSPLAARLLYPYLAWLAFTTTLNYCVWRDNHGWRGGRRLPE
The target of data set [9] is T3, TSPO. The conditions noted are these: first human study; cited from earlier work.

For `CCC(C)N(C)C(=O)c1cc2ccccc2c(-c2ccccc2Cl)n1` (centres unmarked) [[^11C]PK11195], the “PET uptake in Sandhoff mice compared to wildtype” value on TSPO [1] is reported as “higher”. In the data set on TSPO [2] (in vivo), the brain uptake result is “poor brain uptake” and the non-specific binding result is on record as “significant non-specific binding”.
In the case of `CCN(CC)C(=O)Cc1c(-c2ccc(OC)c([125I])c2)nn2c(C)cc(C)nc12` [[^125I]1, N,N-Diethyl-2-[2-(3-[^125I]-iodo-4-methoxyphenyl)-5,7-dimethylpyrazolo[1,5-a]pyrimidin-3-yl]acetamide], the “level of [125I]1 binding in neurotoxicant-treated rat brain versus control brain” value on TSPO [3] (1.4 nM tracer, horizontal brain sections, FIG. 2A/2B) was “higher levels”. In addition, the “blocking of [125I]1 uptake by PK11195 (specificity for TSPO)” value at TSPO [3] (neurotoxicant-treated rat, 10 μM PK11195, FIG. 2C) is recorded as “almost completely blocked”. The “lung signal to background ratio” value turned out to be 21.2 on TSPO [4] (LPS treated mouse) and 14.6 at TSPO [4] (control mouse). Besides, the “uptake in inflamed mouse lungs relative to normal lungs” value at TSPO [4] (SPECT-CT, FIG. 3) was 1.5 fold. Further, the “tracer uptake (SUV) in thalamus, Sandhoff versus wildtype” value at TSPO [5] (2 months, p=0.0484) was “statistically significant increase”. Moreover, at TSPO [5] (3 months, p=0.0172), the “tracer uptake (SUV) in brainstem, Sandhoff versus wildtype” value is recorded as “statistically significant increase”. In addition, the “tracer uptake with blocker versus without blocker” value on TSPO [5] (Sandhoff mouse, co-injected nonradioactive IodoDPA713 (20 μM)) was “reduced uptake”. At TSPO [5] (quantitative analysis, FIG. 8K), the “tracer uptake (SUV) in thalamus, cerebellum and brainstem, Sandhoff versus wildtype” value is listed as “trend of increased uptake”. In addition, the “tracer uptake in thalamus, Sandhoff versus wildtype (time-activity curve)” value at TSPO [5] (thalamus, FIG. 8J) is “consistently had higher uptake”. Besides, the “organ specificity of increased uptake (lungs and liver also analyzed)” value at TSPO [6] (coxsackievirus-injected mice) is listed as “heart-specific”. For the same molecule, on TSPO [6] (n=3, p<0.05, FIG. 15), the “tracer uptake (SUV) in heart, coxsackievirus-injected versus PBS-injected control mice” value is “statistically significant increase”. The “binding in cerebellum, Sandhoff versus wildtype” value is reported as “modest increase” at TSPO [7] (2 months, did not reach statistical significance, p=0.098) and “increased binding” on TSPO [7] (3 months, p=0.0151). In addition, at TSPO [7] (2 months, p=0.0007), the “binding to TSPO in thalamus, Sandhoff versus wildtype” value is recorded as “significant increases”. Moreover, the “binding to TSPO in brainstem, Sandhoff versus wildtype” value at TSPO [7] (2 months, p=0.0011) is recorded as “significant increases”. Further, the “binding in hippocampus, Sandhoff versus wildtype” value on TSPO [7] (2 months, p=0.63) is on record as “no significant increase”; on TSPO [7] (3 months, p=0.5912), “no increased TSPO binding”. Moreover, the “binding in cerebral cortex, Sandhoff versus wildtype” value at TSPO [7] (2 months, p=0.98) is listed as “no significant increase”; on TSPO [7] (3 months, p=0.0037) it was “increased binding”. Besides, the “binding in thalamus, Sandhoff versus wildtype” value at TSPO [7] (3 months, p<0.0001) is “increased TSPO binding”. The “binding in brainstem, Sandhoff versus wildtype” value on TSPO [7] (3 months, p=0.0016) was “increased TSPO binding”.
As to `CCN(CC)C(=O)Cc1c(-c2ccc(OC)cc2)nn2c(C)cc(C)nc12` [DPA-713, N,N-diethyl-2-[2-(4-methoxy-phenyl)-5,7-dimethyl-pyrazolo[1,5-a]pyrimidin-3-yl]-acetamide], at TSPO [8], the “affinity for TSPO relative to PK11195” value was “nearly twice”.
For `CCN(CC)C(=O)Cc1c(-c2ccc(OC)cc2)nn2c(C)cc(C)nc12` [[^11C]DPA-713], the “brain uptake relative to [11C]-PK11195” value with TSPO [2] (PET imaging) was “higher brain uptake”. The “signal-to-noise ratios relative to [11C]PK11195” value in the data set on TSPO [2] (rodent model of brain injury) is recorded as “higher signal-to-noise ratios”. Also, the “binding potential relative to [11C]PK11195” value at TSPO [9] is “higher binding potential”.

The record behind these values is patent US8778304B2, “TSPO-targeting compounds and uses thereof” (The Johns Hopkins University, priority 2010, dated 2014).
